Data published in patent US20100310542A1, “Pharmaceutical Compositions for treating wouds and related methods” (HEALOR LTD., priority 2007, published 2010).
* marks the point of attachment. Myristoyl = CCCCCCCCCCCCCC(=O)*

Key:
[1] = tested on: full thickness skin incisions; experiment: severe inflammatory burden at incision wounds in mice; assay type: in vivo, C57BL/6J mice; conditions: peptide 1 μM daily, 7 days
Description: Full thickness (20 mm long) skin incisions were performed on the upper back of anesthetized C57BL/6J mice (6 mice per group). Following incisions, wounds were treated daily with Myr-pseudosubstrate PKCα peptide, 1 μM applied directly on the wounds in the various formulations (Formulation A-C) described above.
(§1) After 7 days, wounds were excised and subjected to histology and immunohistochemistry. Inflammatory burden was considered severe when at least 2 of the 3 following parameters were present at the wound gap: (1) Abscess formation at the wounded area, (2) excessive leukocytosis (>100 cells in a fixed field×200), (3) high WBC/RBC ratio in blood vessels where >20% of WBC content within the blood vessels is shown in a fixed field (×200). Results are summarized and presented as percent of wounds with severe inflammation relative to the number of wounds in the group.
as §1, with “Full thickness (20 mm long) skin incisions were performed on the upper back of anesthetized C57BL/6J mice (6 mice per group). Following incision, wounds were treated daily with PKCα inhibitor (Pseudosubstrate PKCα peptide, 1 μM) applied directly to the wounds in the various formulations (Formulation A-C) described above. After” for “After”, “per total” for “relative to the number of”

PKCα = PKCα activity assay in keratinocytes overexpressing PKCα; assay type: cell-based, murine; conditions: Formulation A; peptide 1 μM for 15 minutes; PKCα overexpressing cells; relative to controls
Description: Transduction of keratinocytes with PKC isoform genes: The culture medium was aspirated and keratinocyte cultures were infected with PKC recombinant adenoviruses encoding specific PKC isoforms such as PKCα for one hour. The cultures were then washed twice with MEM and re-fed. Ten hours post-infection cells were transferred to serum-free low Ca^2+-containing MEM for 24 hours.
PKC activity: Specific PKC activity was determined in freshly prepared immunoprecipitates from keratinocyte cultures following appropriate treatments. These lysates were prepared in RIPA buffer without NaF. Activity was measured using the SignaTECT Protein Kinase C Assay System (Promega, Madison, Wis., USA) according to the manufacturer's instructions. PKCα pseudosubstrate was used as the substrate in these studies.
PKC immunokinase assay: Purified and standardized PKC isozymes were kindly supplied by Dr. P. Blumberg (NCl, NIH, U.S.) and Dr. Marcello G. Kazanietz (University of Pennsylvania, School of Medicine). Primary keratinocytes were harvested in 500 μl […] (1% Triton-X 100, 10 μg/ml aprotinin and leupeptin, 2 μg/ml pepstatin, 1 mM PMSF, 1 mM EDTA, 200 μM […], 10 mM NaF in 1×PBS). Lysates were incubated at 4° C. for 30 minutes, and spun at 16,000×g for 30 minutes at 4° C. Supernatants were transferred to a fresh tube. […]

[2] = tested on: full thickness skin incisions; experiment: incision wound healing in mice, percent of healed wounds; assay type: in vivo, C57BL/6J mice; conditions: agent alone, all formulations (A-C); daily, 7 days; vs groups treated with formulations alone; listed as pseudosubstrate peptide
Description: In vivo incision wound generation and inducement of inflammation: Full thickness (20 mm long) skin incisions were performed on the upper back of anesthetized C57BL/6J mice (6 mice per group). […] the incision, wounds were treated daily with insulin (10^−6 M; 0.1 units/ml); pseudosubstrate PKCα peptide, 1 μM (PKCα inhibitor); or Insulin+PKCα inhibitor (Myr-pseudosubstrate PKCα peptide, 1 μM and insulin 0.1 units) applied directly on the wounds in the various formulations (Formulations A-C) as described above. After 7 days, wounds were excised and the percentage of healed wounds was evaluated by examining the morphology and histology of the wounds. Results are presented as percent of healed wounds relative to the total number of wounds per group. […] Full thickness (20 mm long) skin incisions were performed on the upper back of anesthetized C57BL/6J mice (6 mice per group). […] After 7 days, wounds were excised and the percentage of healed wounds was evaluated by examining the morphology and histology of the wounds. […]

keratin 1 = keratin 1 expression by Western blot in keratinocytes; assay type: cell-based, mice; conditions: visfatin 0.0001 μg/ml or L-alpha 100 ng/ml, 24 hours after calcium-induced differentiation
From the text: Medium A and B are both EMEM eagle's minimal essential medium from Biological Industries (Israel) containing 8% CHELEX™ treated fetal bovine serum. CHELEX™ is a strong chelator which binds free Ca^2+ and Mg^2+ ions to prevent these ions from being bioavailable to the cultured cells.
Primary skin keratinocytes isolated from the tails of adult mice (7-10 months up to 2 years) were maintained in medium A (MEM) as described above. After 5 days in (medium A), the growth medium in half of the cultured plates was replaced with medium B (as described above)
Next visfatin or L-alpha were each individually added to cells cultured in medium A (FIG. 19A) and cells cultured in medium B (FIG. 19B) as indicated in FIG. 19. The final concentration in the culture medium of visfatin was 0.0001 μg/ml visfatin. The final concentration in the culture medium of L-alpha was 100 ng/ml.
Cell differentiation was induced by elevating calcium from 0.05 mM to 0.12 mM as described above. Twenty-four (24) hours after differentiation cells were harvested and Western Blot analysis was performed. […] Keratin 1 expression was then quantified using standard densitometric methods […]
Cell differentiation was then induced by elevating calcium levels in the culture medium from 0.05 mM to 0.12 mM. […] Expression was assessed using standard Western blotting and densitometry techniques.

Molecule	severe inflammation (percent of wounds with severe inflammation) ([1]; Formulation A)	severe inflammation (percent of wounds with severe inflammation) ([1]; Formulation B)	severe inflammation (percent of wounds with severe inflammation) ([1]; Formulation C)	inhibition of PKCα activity (PKCα)	healing of wounds (percent of healed wounds) [2]	expression of keratin 1 (keratin 1; medium A (no KCl))	expression of keratin 1 (keratin 1; medium B (KCl 0.4 mg/ml))
Myr*-Phe-Ala-Arg-Lys-Gly-Ala-Leu-Arg-Gln-OH (Myristoyl-FARKGALRQ-OH; SMILES CCCCCCCCCCCCCC(=O)N[C@@H](Cc1ccccc1)C(=O)N[C@@H](C)C(=O)N[C@@H](CCCNC(=N)N)C(=O)N[C@@H](CCCCN)C(=O)NCC(=O)N[C@@H](C)C(=O)N[C@@H](CC(C)C)C(=O)N[C@@H](CCCNC(=N)N)C(=O)N[C@@H](CCC(N)=O)C(=O)O) [PKCα inhibitor, myristoylated peptide corresponding to the pseudosubstrate region of PKCα, CAS 147217-25-2]	significant reduction in severe inflammation	No reduction in inflammatory burden	No reduction in inflammatory burden	able to significantly inhibit PKCα activity	did not promote wound healing efficacy		
CCCCCCCCCCCCCCCC(=O)OC[C@H](COP(=O)(O)OC1C(O)C(OP(=O)(O)O)C(OP(=O)(O)O)C(OP(=O)(O)O)C1O)OC(=O)CCCCCCCCCCCCCCC.N.N.N.N.N.N.N (stereo partly drawn) [L-alpha, L-α-Phosphatidylinositol-3,4,5-trisphosphate, Dipalmitoyl-, Heptaammonium Salt]						decreased relative to the control sample	not significantly altered
